Assay results taken from publication PMC2822779, “A glycine receptor is involved in the organization of swimming movements in an invertebrate chordate” (BMC Neuroscience, 2010).

Molecular target: T1, Ci-GlyR (Ciona intestinalis, UniProt D2KU21)
T1 construct: single subunit expressed alone; no tag stated; cDNA from hatched larvae
T1 sequence (D2KU21 25-491): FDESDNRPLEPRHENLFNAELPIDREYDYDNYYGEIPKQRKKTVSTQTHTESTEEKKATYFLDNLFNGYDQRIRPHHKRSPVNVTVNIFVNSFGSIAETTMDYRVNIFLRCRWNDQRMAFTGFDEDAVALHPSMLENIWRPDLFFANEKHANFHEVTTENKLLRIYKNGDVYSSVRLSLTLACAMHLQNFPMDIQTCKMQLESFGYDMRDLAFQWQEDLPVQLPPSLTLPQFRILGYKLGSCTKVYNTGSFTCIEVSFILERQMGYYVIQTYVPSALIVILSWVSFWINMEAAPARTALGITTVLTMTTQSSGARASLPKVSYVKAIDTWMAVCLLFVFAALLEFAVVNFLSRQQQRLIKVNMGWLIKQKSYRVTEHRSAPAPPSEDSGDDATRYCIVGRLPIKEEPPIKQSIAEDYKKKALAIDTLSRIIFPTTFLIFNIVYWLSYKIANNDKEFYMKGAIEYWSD
Experiment: two-electrode voltage clamp, Xenopus oocytes
Format: cell-based

## NCC(=O)O [glycine]
  EC50: ~750 µM
